For assay [1], the target named is T1, mGlu5 (Homo sapiens, UniProt P41594). In words: standard mGlu5 calcium mobilization functional assay, human mGlu5. The assay is classed as cell-based. To be noted: for EC50: EC50 (PAM). (In general: A change in cytosolic calcium serves as a functional read-out for many receptors and channels.)
In assay [2] the target is T1, mGlu5. The experiment in a line: standard mGlu5 calcium mobilization functional assay, PAM and NAM modes. The assay is classed as cell-based.
Assay [3] concerns the target T1, mGlu5. The following applies: Figure 1 ref 14; cited from earlier work.
Setting [4] is: human mGlu5 assay, synthetic material.

Some results are limits rather than exact numbers.

T1 sequence (P41594 21-1212): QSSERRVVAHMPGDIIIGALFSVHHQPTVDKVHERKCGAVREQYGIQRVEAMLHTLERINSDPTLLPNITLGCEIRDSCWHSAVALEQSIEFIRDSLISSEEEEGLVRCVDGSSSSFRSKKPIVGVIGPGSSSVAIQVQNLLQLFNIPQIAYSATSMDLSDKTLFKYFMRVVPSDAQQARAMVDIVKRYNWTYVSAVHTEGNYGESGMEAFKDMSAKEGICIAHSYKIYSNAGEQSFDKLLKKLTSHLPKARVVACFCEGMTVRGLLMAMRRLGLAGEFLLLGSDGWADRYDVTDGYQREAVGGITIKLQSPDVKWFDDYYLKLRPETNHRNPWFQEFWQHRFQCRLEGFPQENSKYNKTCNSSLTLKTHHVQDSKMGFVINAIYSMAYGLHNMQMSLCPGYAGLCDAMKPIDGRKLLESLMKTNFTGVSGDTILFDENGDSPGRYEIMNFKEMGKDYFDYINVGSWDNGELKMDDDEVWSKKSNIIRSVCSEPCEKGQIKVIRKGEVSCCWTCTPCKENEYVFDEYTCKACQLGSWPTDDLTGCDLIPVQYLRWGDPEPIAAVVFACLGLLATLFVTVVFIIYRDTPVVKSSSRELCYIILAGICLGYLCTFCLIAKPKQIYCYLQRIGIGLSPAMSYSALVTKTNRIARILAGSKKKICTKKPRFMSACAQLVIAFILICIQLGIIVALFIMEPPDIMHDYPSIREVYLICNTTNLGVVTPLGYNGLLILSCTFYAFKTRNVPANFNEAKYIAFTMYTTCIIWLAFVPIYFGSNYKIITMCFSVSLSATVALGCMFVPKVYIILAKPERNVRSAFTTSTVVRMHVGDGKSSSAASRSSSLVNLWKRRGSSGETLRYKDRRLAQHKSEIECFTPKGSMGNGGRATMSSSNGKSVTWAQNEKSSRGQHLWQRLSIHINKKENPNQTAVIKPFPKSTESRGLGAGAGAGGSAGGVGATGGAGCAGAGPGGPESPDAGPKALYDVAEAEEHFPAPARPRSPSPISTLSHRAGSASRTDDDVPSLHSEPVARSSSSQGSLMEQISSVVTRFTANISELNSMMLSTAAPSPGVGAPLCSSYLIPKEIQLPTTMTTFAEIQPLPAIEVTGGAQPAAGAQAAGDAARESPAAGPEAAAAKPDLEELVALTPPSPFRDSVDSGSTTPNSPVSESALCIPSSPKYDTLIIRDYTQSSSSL

Usually EC50 stands for the concentration that produces a half-maximal response. Take `NC(=O)c1ccc(C#Cc2cccc(F)c2)cn1` [M4, 5-((3-Fluorophenyl)ethynyl)picolinamide]: the EC50 in assay [1] (kit-produced M4, human mGlu5 assay, material from the BMO production kit) came to 510 nM. The EC50 in assay [1] (synthetic-derived M4, human mGlu5 assay, synthetic material) came out at 315 nM. Also, the “% Glu Max, kit-produced M4” value in assay [1] (human mGlu5 assay, material from the BMO production kit) is 75 % Glu Max. In assay [1] (setting [4]), the “% Glu Max, synthetic-derived M4” value is reported as 77% and the “agonism (no agonism noted up to), synthetic-derived M4” value is more than 30 µM.

In the case of `O=C(C(=O)c1cccc(F)c1)c1ccc(C(=O)NC2CCC2)nc1` [M5, N-Cyclobutyl-5-(2-(3-fluorophenyl)-2-oxoacetyl)picolinamide], in assay [2], the “activity in NAM mode” value was “inactive” and the “activity in PAM mode” value is “inactive”.

In the case of `O=C(c1ccc(C(=O)NC2CCC2)nc1)c1cccc(F)c1` [M6, N-Cyclobutyl-5-(3-fluorobenzoyl)picolinamide], in assay [2], the “activity in NAM mode” value is “inactive” and the “activity in PAM mode” value was “inactive”.

Turning to `O=C(O)c1ccc(C#Cc2cccc(F)c2)cn1` [compound 3, 5-((3-Fluorophenyl)ethynyl)picolinic Acid], the “activity of metabolite M2, the product of amide hydrolysis” value in assay [3] was “inactive”.

Source of the values: PMC6690571 (ACS Omega, 2019).
